Assays:
[1] = system: Caco-2 cell; assay: In vitro Caco-2 cell transport model; type: in vitro ADME, human; conditions: Shuang-Huang-Lian, with 0.1% (w/v) of COS vs control
From the text: The protocol of Caco-2 cell study was shown previously.

[2] = Pharmacokinetics of caffeic acid derivatives after oral administration of the FLJ-FF herb couple; design: species or system rats; conditions: rat, in vivo
Protocol: The pharmacokinetics of caffeic acid derivatives in the FLJ-FF herb couple was studied in our previous study. Integral concentrations at each time point for the eight components were calculated based on the AUC-weighting method. The weighting coefficient for each component was calculated using Equations (4) and (5). […] AUC was determined using GraphPad Prism for Windows, version 5 (Graph Pad Software Inc., San Diego, CA, USA). […] Subsequently, plasma was prepared by centrifugation at 1816× g for 7 min and immediately analyzed or stored at −70 °C for further analysis after being mixed with 10 μL of 5% formic acid. The treatment and UPLC-ESI-MS/MS analysis for samples have been studied previously.

[3] = system: influenza A virus (H1N1); assay: microbe, parasite or virus in culture; type: cell-based; conditions: for IC50: Influenza A virus, H1N1, MDCK, tested 0.0625-1.0000 mM, unit inferred, read-out: IC50 (anti-viral activity)
[4] = In vivo pharmacokinetic study of FLJ-FF herb couple preparations with or without COS; design: species or system rats; conditions: rat, po
From the text: The rats were administrated product A and A4 at the dosages of at the dosage of 32 g raw medicine per kilogram, product B and B4 at the dosage of 64 g raw medicine per kilogram, product C and C4 at the dosage of 48 g raw medicine per kilogram, and product D and D4 at the dosage of 160 g raw medicine per kilogram, respectively.

[5] = system: influenza virus strain, A/PR8/34 (H1N1); type: cell-based; conditions: compared with PBS group; ribavirin 20 mg/kg orally as positive control; Figure S1

Row | SMILES | highest Papp-value increase [1] [fold] | AUC(0-inf) [2] [ng·h/mL] | AUC(0-t) [2] [ng·h/mL] | Cmax [2] [ng/mL] | MRT last [2] [h] | Tmax [2] [h] | half-life [2] [h] | IC50 [3] [µM] | AUC ([4]; AUC (Control)) [ng·h/mL] | AUC ([4]; 25 mg/kg, AUC (Absorption Enhancer)) [ng·h/mL] | antiviral activity, folds lower than that of forsythoside A [3] [folds] | inhibition rate on influenza virus [5]
1 | O=C(C=Cc1ccc(O)c(O)c1)OC1CC(O)(C(=O)O)CC(O)C1OC(=O)C=Cc1ccc(O)c(O)c1 (stereo not drawn) [3,4-dicaffeoylquinic acid] | 5.86 | 213 | 141 | 66.7 ± 15.4 | 7.6 | 0.167 | 9.18 ± 0.649 | 401 | – | – | – | –
2 | O=C(/C=C/c1ccc(O)c(O)c1)O[C@@H]1C[C@](O)(C(=O)O)C[C@@H](OC(=O)/C=C/c2ccc(O)c(O)c2)[C@H]1O [3,5-dicaffeoylquinic acid] | 8.66 | 54.2 | 53.1 | 70.5 ± 28.1 | 6.39 | 0.1667 ± 0 | 5.95 ± 0.559 | 393 | 57.7 | – | – | –
3 | O=C(/C=C/c1ccc(O)c(O)c1)O[C@@H]1C[C@](O)(C(=O)O)C[C@@H](O)[C@H]1O [Chlorogenic acid] | – | 3160 | 3220 | 2500 ± 438 | 4.74 | – | 3.9 ± 0.699 | 754 | 638 | 968 | 2.47 | –
4 | O=C(C=Cc1ccc(O)c(O)c1)OC1C(O)CC(O)(C(=O)O)CC1O (stereo not drawn) [Cryptochlorogenic acid, cryptochlorogenic acid] | 3.13 | 726 | 713 | 950 ± 201 | 4.84 | 0.167 | 4.64 ± 1.03 | 735 | – | – | – | –
5 | O=C(C=Cc1ccc(O)c(O)c1)OC1CC(O)(C(=O)O)CC(O)C1O (stereo not drawn) [Neochlorogenic acid] | – | 715 | 579 | 575 ± 170 | 5.3 | 0.167 | 3.49 ± 0.423 | 722 | – | – | – | –
6 | NC(=O)c1ncn([C@@H]2O[C@H](CO)[C@@H](O)[C@H]2O)n1 [ribavirin] | – | – | – | – | – | – | – | – | – | – | – | remarkable increase

— article PMC6154603, “Study on the Rationality for Antiviral Activity of Flos Lonicerae Japonicae-Fructus Forsythiae Herb Couple Preparations Improved by Chito-Oligosaccharide via Integral Pharmacokinetics” (Molecules : A Journal of Synthetic Chemistry and Natural …, 2017)
